Assay results from ChEMBL document CHEMBL4376877, “Stepwise Evolution of Fragment Hits against MAPK Interacting Kinases 1 and 2” (J Med Chem, 2020).
Values after ≈ are worked out from the molar mass of the structure shown.

Legend:
[1] = Thermodynamic solubility of compound at pH 7.4; type: physicochemical; conditions: buffer, read-out: Therm_solubility
[2] = Permeability across apical side to basolateral side of membrane in human Caco2 cells; type: ADME, cell-based; conditions: Caco-2, read-out: permeability
[3] = Permeability across basolateral side to apical side of membrane in human Caco2 cells; type: ADME, cell-based; conditions: Caco-2, read-out: permeability
[4] = Clearance in mouse liver microsomes; type: ADME, Microsome; conditions: read-out: CLH
[5] = Clearance in human liver microsomes; type: ADME, Microsome; conditions: read-out: CLH
[6] = Initial plasma concentration in mouse at 1 mg/kg, iv; type: ADME, organism-based
[7] = Terminal elimination half life in mouse at 1 mg/kg, iv; type: ADME, organism-based; conditions: in vivo, read-out: beta t1/2 (converted)
[8] = Clearance in mouse at 1 mg/kg, iv; type: ADME, organism-based; conditions: in vivo
[9] = Apparent volume of distribution in mouse at 1 mg/kg, iv; type: ADME, organism-based; conditions: in vivo, read-out: Vz
[10] = AUC (0 to 8 hrs) in mouse at 1 mg/kg, iv measured up to 8 hrs; type: ADME, organism-based; parameters: time < 8 hr, dose 1 mg/kg, route intravenous; conditions: in vivo
[11] = AUC (0 to infinity) in mouse at 1 mg/kg, iv; type: ADME, organism-based; parameters: dose 1 mg/kg, time infinity, route intravenous; conditions: in vivo
[12] = Cmax in mouse at 5 mg/kg, po measured after 10 mins; type: ADME, organism-based; parameters: dose 5 mg/kg, route oral; conditions: in vivo
[13] = Tmax in mouse at 5 mg/kg, po; type: ADME, organism-based; conditions: in vivo
[14] = Terminal elimination half-life in mouse at 5 mg/kg, po; type: ADME, organism-based; conditions: in vivo, read-out: beta t1/2 (converted)
[15] = Clearance in mouse at 5 mg/kg, po; type: ADME, organism-based; conditions: in vivo
[16] = Apparent volume of distribution in mouse at 5 mg/kg, po; type: ADME, organism-based; conditions: in vivo
[17] = AUC (0 to 8 hrs) in mouse at 5 mg/kg, po measured up to 8 hrs; type: ADME, organism-based; parameters: dose 5 mg/kg, time < 8 hr, route oral; conditions: in vivo
[18] = AUC (0 to infinity) in mouse at 5 mg/kg, po; type: ADME, organism-based; parameters: dose 5 mg/kg, route oral, time infinity; conditions: in vivo
[19] = Oral bioavailability in mouse at 5 mg/kg; type: ADME, organism-based; conditions: in vivo
[20] = Cmax in mouse at 5 mg/kg, po measured after 0.5 hrs; type: ADME, organism-based; parameters: dose 5 mg/kg, route oral; conditions: in vivo

solubility thermodynamic [1] | Papp A→B [2] | Papp B→A [3] | microsomal CLint [4] | microsomal CLint [5] | C0 [6] | half-life [7] | clearance [8] | Vd [9] | AUC(0-t) at 8 h [10] | AUC(0-inf) [11] | Cmax [12] | Tmax [13] | half-life [14] | CL/F [15] | Vz [16] | AUC(0-t) at 8 h [17] | AUC(0-inf) [18] | bioavailability [19] | Cmax [20] | Structure (SMILES)
7.3 µg/mL (≈ 20.8 µM) | 27 ×10⁻⁶ cm/s | 21 ×10⁻⁶ cm/s | 25.1 µL/min/mg | 7.9 µL/min/mg |  |  |  |  |  |  |  |  |  |  |  |  |  |  |  | Cc1c(-c2cncc(-c3ccc(C(N)=O)c(OC(C)C)c3)c2)cnn1C
10 µg/mL (≈ 28.5 µM) | 6.2 ×10⁻⁶ cm/s | 41 ×10⁻⁶ cm/s | 62 µL/min/mg |  |  |  |  |  |  |  |  |  |  |  |  |  |  |  |  | Cc1n[nH]c(C)c1-c1cncc(-c2ccc(C(N)=O)c(OC(C)C)c2)c1
45 µg/mL (≈ 176 µM) | 32 ×10⁻⁶ cm/s | 20 ×10⁻⁶ cm/s | 9.4 µL/min/mg | 5.8 µL/min/mg | 678 ng/mL | 204 min | 100 mL/min/kg | 30 L/kg | 160 ng·h/mL | 166 ng·h/mL | 615 ng/mL | 10.2 min | 96 min | 168 mL/min/kg | 23 L/kg | 488 ng·h/mL | 494 ng·h/mL | 61% |  | CC(C)Oc1cc(-c2cccnc2)ccc1C(N)=O
11 µg/mL (≈ 32.7 µM) | 8.3 ×10⁻⁶ cm/s | 33 ×10⁻⁶ cm/s | 251 µL/min/mg | 18 µL/min/mg |  |  |  |  |  |  |  |  |  |  |  |  |  |  |  | Cc1[nH]ncc1-c1cncc(-c2ccc(C(N)=O)c(OC(C)C)c2)c1
28 µg/mL (≈ 74 µM) | 10 ×10⁻⁶ cm/s | 25 ×10⁻⁶ cm/s | 3.1 µL/min/mg | < 10 µL/min/mg |  | 132 min | 28.3 mL/min/kg | 5.5 L/kg | 568 ng·h/mL | 579 ng·h/mL |  | 30 min | 168 min | 35 mL/min/kg | 8.7 L/kg | 2080 ng·h/mL | 2360 ng·h/mL | 73% | 658 ng/mL | CC(C)Oc1cc(-c2cncc(-c3cnn(C4COC4)c3)c2)ccc1C(N)=O
